According to patent US10093627B2, “Tetrahydroquinoline derivatives and their use as Epac inhibitors” (Institut National de la Sante et de la Recherche Medicale …, priority 2012, dated 2018):

What was measured:
Epac1 = molecular target: T1, Epac1 (Homo sapiens, UniProt O95398); assay: Epac1 nucleotide exchange activity, multipoint (time-course) method, bGDP-loaded GST-Rap1A; assay type: biochemical; settings: 20 μM CE3F4, single dose; 2 μM compound 007; FIG. 1
T1 construct: Recombinant human Epac1 (residues 149-881), deleted of its Dishevelled, Egl-10, and Pleckstrin (DEP) domain; made in house
T1 sequence (O95398 149-881 isoform O95398-3): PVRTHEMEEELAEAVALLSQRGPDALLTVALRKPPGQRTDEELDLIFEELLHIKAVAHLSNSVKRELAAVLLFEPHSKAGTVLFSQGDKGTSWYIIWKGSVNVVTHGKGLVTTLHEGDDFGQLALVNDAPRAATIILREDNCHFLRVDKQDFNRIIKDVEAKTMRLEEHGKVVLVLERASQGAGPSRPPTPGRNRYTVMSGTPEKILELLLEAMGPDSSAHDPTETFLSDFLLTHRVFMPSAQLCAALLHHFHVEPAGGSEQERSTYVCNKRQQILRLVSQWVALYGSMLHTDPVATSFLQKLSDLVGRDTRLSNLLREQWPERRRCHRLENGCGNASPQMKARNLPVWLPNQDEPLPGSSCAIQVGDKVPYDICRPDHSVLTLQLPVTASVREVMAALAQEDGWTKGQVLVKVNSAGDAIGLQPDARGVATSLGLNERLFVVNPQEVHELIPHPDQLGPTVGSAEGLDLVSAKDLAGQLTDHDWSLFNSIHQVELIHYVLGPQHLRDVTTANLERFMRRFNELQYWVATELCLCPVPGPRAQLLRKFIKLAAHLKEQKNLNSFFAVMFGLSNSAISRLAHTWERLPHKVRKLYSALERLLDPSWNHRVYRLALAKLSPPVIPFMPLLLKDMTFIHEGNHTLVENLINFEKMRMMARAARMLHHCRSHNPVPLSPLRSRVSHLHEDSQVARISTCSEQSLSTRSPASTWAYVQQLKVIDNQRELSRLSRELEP
Description: Epac1 nucleotide exchange activity was measured: • in the absence of compound 007, • or in the presence of 2 μM of compound 007, either alone or with 25 μM of compound 009, • or with 20 μM of CE3F4.
Variations of RFU (Relative Fluorescence Units) were studied as a function of time and fitted to single exponentials. Reported values are mean±SEM (n=3). (see Materiel and Methods).
Concerning FIG. 1, a “multipoint” (time-course) method was used. All components except the agonist (007) were mixed in a well and the exchange activity of Epac1 was initiated by injection of the agonist. GST-Rapt was preloaded with a fluorescent derivative of GDP, and the Epac1-catalyzed nucleotide exchange was measured using a large excess of non-fluorescent GDP, by taking advantage of the spectroscopic difference between free and Rap1-bound fluorescently labeled GDP. The principle of the method is similar to that reported in particular by Van den Berghe et al. (1997; Oncogene 15, 845), except that Bodipy FL-labeled GDP (bGDP) was used here, rather than 2′,3′-bis(O)—N-methylanthraniloyl-GDP (mant-GDP). […]

[1] = system: Epac1-induced H-Ras activation in HEK293 cells; assay: Epac1-induced H-Ras activation, H-Ras-GTP pull-down in HEK293 cells; assay type: cell-based
Description: The effects of CE3F4 to prevent Epac1-induced H-Ras activation was determined by extraction of GTP-loaded H-Ras from cell lysates with the immobilized Ras-binding domain of Raf1.
HEK293 cells (FIG. 3A) or rat neonatal cardiac myocytes (FIG. 3B) were transfected with Epac1. 24 h after transfection, cells were preincubated or not with CE3F4 for 30 min and were then treated or not with Sp-007 (10 μM) for 10 min. In FIG. 3C, HEK293 cells overexpressing β1-AR and transfected with Epac1 were pretreated or not with 20 μM of CE3F4 for 30 min and stimulated or not with Iso for 10 min. Amounts of H-Ras-GTP were determined by pull-down assays. The bar graph represents the mean±S.E.M. of 5 (FIG. 3A) or 2 (FIG. 3B, 3C) independent experiments. Results are expressed as the percentage of unstimulated control cells.
Ras and Rap1 pull-down experiments were performed using a GST fusion protein containing respectively the Ras binding domain of Raf1-RBD and the Rap1 binding domain of Ral-GDS as previously described (Métrich et al., 2008). Cells were starved for 1 h before stimulation in MEM free with penicillin-streptomycin (1%). […]

## CC1CCc2c(cc(Br)c(F)c2Br)N1C=O (racemic) [CE3F4]
Epac1
  Inhibition of the exchange reaction induced by Epac1 plus 007: inhibited the exchange reaction
[1]; HEK293 overexpressing β1-AR, transfected with Epac1, CE3F4 20 μM, 30 min, Iso 10 min, FIG. 3C
  Amount of Ras-GTP induced by Iso: decreased
[1]; HEK293 transfected with Epac1, CE3F4 30 min, Sp-007 10 μM, 10 min, FIG. 3A
  Amount of Ras-GTP induced by Sp-007: decreased
